US20260027179A1, “ANTI-SYNUCLEINOPATHY PEPTIDE AND METHODS TO TREAT NEURODEGENERATIVE DISEASES” (University of British Columbia, priority 2021, published 2026)
Peptide text beside a SMILES is read from it. * marks the point of attachment. Cbz = O=C(OCc1ccccc1)*

Experiments:
endogenous α-synuclein = molecular target: T1, endogenous α-synuclein (Rattus norvegicus, UniProt P37377); experiment: Knockdown of endogenous α-synuclein in primary cortical neuron cultures, immunoblot; format: cell-based
T1 construct: endogenous in cells; host or cells: primary rat cortical neurons (14 DIV) and primary rat ventral midbrain neurons (3 DIV)
Experimental: Primary rat neuron cultures were prepared from embryos of pregnant Sprague-Dawley rats (E18). The experimental protocol was approved by the University of British Columbia Animal Care Committee. Briefly, the cortical tissue or ventral midbrain tissue was isolated into ice cold HBSS (Invitrogen, 14170-112) and then digested with 0.25% trypsin-EDTA at 37° C. for 30 min. After washing with warm DMEM (supplemented with 10% FBS) three times, neurons were suspended in neuron culture media and dissociated by trituration using varying sizes of pipettes. Neurons were then centrifuged, and the pellet was re-suspended in culture media, washed twice with culture media, and plated on the poly-D-lysine-coated plates. Neuron culture was maintained in the 37° C. incubator with […] and 5% CO2. The morning after culturing, 2/3 of the neuron culture media was replaced with fresh neuron culture media. Media was then replaced every 3-4 days. Primary rat cortical neuron culture was used 14 days in vitro (DIV) and primary rat ventral midbrain neuron culture was used 3 DIV.
Tat-βsyn-degron and Tat-βsyn peptides were first dissolved in sterile water as a 25 mM stock solution and then diluted directly in the neurobasal culture media to make the desired working concentration. 20 mM MPP+iodide stock solution was made freshly each time and diluted in the neurobasal culture media directly to make the desired working concentration. For 48 hrs treatment, neuron culture media containing MPP+ and peptides were replaced every 24 hrs.
(§1) Brain tissues or cultured cells were lysed on ice in the lysis buffer and then the solution was centrifuged at 14,000 rpm for 10 min at 4° C. Next, the supernatant was collected and protein concentrations were determined using a BCA protein assay kit (Thermo Scientific, 23227). Equal amount of protein samples was mixed with 4× sample buffer, boiled at 100° C. for 5 min, and separated on 10% sodium dodecyl sulphate-polyacrylamide gel electrophoresis (SDS-PAGE). Proteins were then transferred to Immobilon-PTM polyvinylidene fluoride (PVDF) membranes (Bio-Rad, 162-0177). The membranes were blocked with 5% non-fat milk in Tris-buffered saline containing 0.1% Tween-20 (TBST) for 1 hr at room temperature, and then incubated overnight at 4° C. with primary antibody. After washing 3×5 min in TBST, membranes were incubated with horseradish peroxidase-conjugated secondary antibody for 1 hr at room temperature. After another three washes with TBST, protein was visualized in the Bio-Rad Imager using ECL western blotting substrate (Pierce, 32016). The band density of each protein was quantified by the Bio-Rad Quantity One software and the relative optical density was analyzed relative to the loading control β-actin on the same membrane.

[1] = molecular target: T2, purified recombinant human α-synuclein (Homo sapiens, UniProt P37840); experiment: Biacore peptide-protein binding assay; conditions: 0.20-12.50 μM peptide, report point 20 seconds into dissociation
T2 construct: His (histidine tag) (N); purchased Sigma S7820-500UG
Experimental: Biacore experiments were performed using a Biacore 3000 instrument (GE Healthcare Biosciences, Upsala, Sweden) and HBS running buffer, pH 7.4, containing 10 mM HEPES, 150 mM NaCl, 3 mM EDTA, and 0.005% surfactant P20. A research-grade CM5 sensor chip was activated with a mixture containing equal molar amounts of EDC (N-ethyl-N′-(dimethylaminopropyl) carbodiide and NHS (N-hydroxysuccinimide). Purified recombinant human α-synuclein (N-terminal histidine tagged, Sigma, S7820-500UG), diluted in sodium acetate pH 3.1, was then injected and covalently coupled to a flow cell of the sensor chip surface by amide bonding. Residual unreacted sites were blocked with ethanolamine. A reference surface, to account for non-specific binding, was similarly generated by activating and blocking an adjacent flow cell. Approximately 1500 resonance units (RU), equivalent to a surface concentration of 1500 pg/mm^2 of α-synuclein, was immobilized.
To ascertain the binding interaction between α-synuclein knockdown peptides and α-synuclein, synthetic Tat-βsyn-degron peptide or control tat peptide was serially diluted and sequentially injected over the active surface containing immobilized α-synuclein and the reference surface for 3 minutes at a flow rate of 30 μl/minute. The peptides were then allowed to dissociate for 3 minutes during which time HBS running buffer was injected. The resultant sensorgrams were double-referenced by subtracting out the binding on the reference surface and the response from the HBS blank buffer control. Binding response report points were collected 20 seconds into the dissociation phase of the interaction at time 200 seconds, which represents a stable binding response and excludes bulk refractive index changes and nonspecific binding.

dopaminergic neurons = experiment: MPTP mouse model, dopaminergic neuronal damage (TH immunoblotting, TH immunohistochemistry); format: in vivo; conditions: peptide 6 μmol/kg i.p. twice a day for 12 days
Experimental: C57BL/6 mice were i.p. injected with 30 mg/kg parkinsonian toxin MPTP (or saline as control), once per day for 5 consecutive days, to induce dopaminergic neuron damage. The effects of MPTP administration on mouse rotarod performance and damage to dopaminergic neurons were then analyzed 1 week after the last injection of MPTP. To determine the effect of α-synuclein knockdown in protecting dopaminergic neurons against MPTP, the Tat-βsyn-degron peptide or its control Tat-βsyn (6 μmol/kg; i.p.) was used in some animals twice a day for 12 days, beginning the first day of MPTP injection. […] The striatum is a region that receives dopaminergic neuronal projections from the substantia nigra and is also deeply affected in PD. Consistent with the specific neurotoxic effects of MPTP on dopaminergic neurons, in mice receiving MPTP injection alone there was a significant loss of protein TH in both dopaminergic neurons in the substantia nigra-containing ventral midbrain (FIGS. 6a and 6c) and dopaminergic neuronal terminals in the striatum (FIGS. 6d and 6f). […] As expected, the specific knockdown of α-synuclein by Tat-βsyn-degron protected against MPTP-induced dopaminergic neuronal injury (FIGS. 6c and 6f).
(§2) C57BL/6 mice (20-25 g) received intraperitoneal (i.p.) injection of 30 mg/kg parkinsonian toxin MPTP hydrochloride once a day for 5 days to induce dopaminergic neuron death in the substantia nigra, while the control mice received equal volumes of saline injection. 6 μmol/kg Tat-βsyn-degron peptide or control Tat-βsyn peptide was i.p. injected into the MPTP-treated mice every 12 hrs from the first day of MPTP injection until 7 days after the last injection of MPTP. All groups of mice then underwent a rotarod test before they were sacrificed.
as §1
C57BL/6 mice were anesthetized with 1.5 g/kg urethane (Sigma, U2500) and then perfused with 0.9% saline and 4% paraformaldehyde. Brains were removed and fixed in 4% paraformaldehyde for 24 hrs before being transferred to 30% sucrose/PBS solution for cryoprotection. The brains were then sectioned into 30 μm slices using a Leica cryostat. After blocking and permeabilization using a PBS solution containing 1% BSA and 0.2% Triton X-100 for 30 min at room temperature, the brain slices were incubated with anti-TH antibody (1:800 dilution) for 3 days at 4° C. Finally, the TH-positive neurons in the substantia nigra and TH-positive neuronal terminals in the striatum were stained using the anti-mouse Ig HRP detection kit (BD Transduction Laboratories, 551011) according to manufacturer's instruction, and visualized under Zeiss Axio Observer D1 microscope. […]

C57BL/6 mice = experiment: MPTP mouse model, rotarod test; format: in vivo; conditions: peptide 6 μmol/kg i.p. twice a day for 12 days, vs MPTP group
Experimental: as §2
The rotarod test was performed as previously described (Heldermon, C. D. et al., PloS one 2, e772, doi:10.1371/journal.pone.0000772 (2007)), with modifications. Briefly, 6 days after the last MPTP injection, all mice received 4 rounds of training on the rotarod (Stoelting Co.). In the first two rounds of training, the rotarod was maintained at constant speed of 20 rpm for 3 min. In the second two rounds of training, the rotarod reversed rotation direction every 3 turns at the constant speed of 20 rpm for 3 min. […] Mice were tested 10 times at 20 min intervals, and the time that they remained on the rotarod during each test was recorded. […] The motor performance of the mouse was expressed as the latency to fall off the rotarod.

CC(C)C[C@@H](C=O)NC(=O)[C@H](CC(C)C)NC(=O)[C@H](CC(C)C)NC(=O)OCc1ccccc1 [MG132, reference compound] (Cbz-Leu-Leu-Leu-aldehyde)
effect on Tat-βsyn-degron induced knockdown of α-synuclein (endogenous α-synuclein; 10 μM MG132 + 50 μM Tat-βsyn-degron, 24 hrs): prevented Tat-βsyn-degron induced knockdown of α-synuclein

YGRKKRRQRRR [Tat peptide, reference compound]
binding response to immobilized α-synuclein [1]: little binding

YGRKKRRQRRRRTKSGVYLVG [Tat-βsyn, control peptide lacking the proteasomal targeting signal, reference compound]
MPTP-induced dopaminergic neuronal damage (overall, FIG. 6 and FIG. 7a-d) (dopaminergic neurons): small, non-significant decrease | endogenous α-synuclein protein levels (endogenous α-synuclein; bath application 24 hrs, 5-50 μM (control 50 μM), cortical neuron cultures): had no effect | MPTP-induced motor deficits (latency to fall off the rotarod) (C57BL/6 mice): significantly reduced

YGRKKRRQRRRGVLYVGSKTRRRRG [Tat-βsynN-degron]
binding response to immobilized α-synuclein [1]: robust and similar binding
